Assay results as given in patent publication US5087640A, “Novel cyanoguanidine derivatives” (Kanebo, Ltd., priority 1989, dated 1992).

Experiments:
[1] = test system: taenia caecum smooth muscle; assay: Smooth muscle relaxation (isolated guinea pig taenia caecum, organ bath); assay type: cell-based, guinia pigs; conditions: Cavia porcellus; cumulative addition; papaverine (10^-4 M) relaxation taken as 100%; MOPS-PSS pH 7.4, 37°±1° C.; read-out: ED50 (dose achieving 50% relaxation)
Experimental: Male guinia pigs weighing 300-600 g were stunned by blow on the head. Taeniae were isolated from the caecum and cut into length of about 1 cm to prepare a plurality of test specimens. These specimens were suspended in an organ bath filled with MOPS-PSS containing 129.7 mM of NaC1, 5.9 mM of KC1, 2.54 mM of CaC12, 1.19 mM of MgC12, 10.0 mM of 3-(N-morpholino)propanesulfonic acid (MOPS) and 11.1 mM of glucose, pH 7.4. The bathing solution was continuously bubbled with 100% O2 gas and maintained at 37°±1° C. Resting tension of each specimen was adjusted to 1 g and the spontaneous response was recorded isotonically. The specimens were allowed to stabilize before starting the test. Test compound was cumulatively added to the bathing solution. A relaxation induced with papaverine (10^-4 M) was taken as 100% relaxation. The relaxation effect of each test compound was evaluated in terms of a dose achieving 50% relaxation (ED50) determined by the linear regression analysis.

in vivo = conditions: rat, po, fasted male rats, deaths for 7 days, Weil's method
Experimental: Male rats weighing 70-210 g (3-5 rats/group) were fasted overnight and administered orally with the test compound suspended in 5% gum arabic solution. LD50 was calculated from the number of death for 7 days using the Weil's method.

K^+ channel = K^+ channel opening activity (^86 Rb^+ efflux from taenia caecum); assay type: cell-based, guinia pigs; conditions: n = 5; efflux just before addition taken as 100%; 37°±1° C.
Experimental: In order to ascertain that the smooth muscle relaxation activity is proportional to the K^+ channel opening activity, the compound of Example B-2 was tested for the K^+ channel opening activity in comparison with pinacidil.
^86 Rb^+ efflux was selected as the indication of K^+ channel opening effect because the K^+ channels were considered to be selective also for Rb^+. In a similar manner to the test 1, specimens of taenia caecum were suspended in a test tube filled with MOPS-PSS. The bathing solution was continuously bubbled with 100% O2 gas and maintained at 37°±1° C. After an equilibration period for about 45 minutes, the specimens were loaded with ^86 Rb^+. The efflux from the specimens was measured using a scintillation counter at every 2 minutes interval. The efflux data were expressed in terms of the rate coefficient (the ^86 Rb^+ efflux just before the test compounds were added were taken as 100%). The effective dose (ED15) Producing 15% increase of the rate coefficient by the test compounds were calculated from the linear regression analysis.

[2] = Hypotensive activity in anesthetized dogs (mean blood pressure); assay type: in vivo, Mongrel dogs; conditions: 30 μg/kg, i.v.; pentobarbital-anesthetized dogs
Experimental: Mongrel dogs of both sexes, weighing 11-22 kg, were anesthetized with sodium pentobarbital (30 mg/kg, i.v.). Mean blood pressure was measured with a carrier amplifier (Nihon Koden, AP-621G) via a pressure transducer (Nihon Koden, TP-200T) connected to the cannulated left femoral artery. Each test compound was dissolved in 0.9% saline containing 50% (v/v) ethanol and injected into the femoral vein in volumes of 0.1 ml/kg. The hypotensive effects of test compounds were evaluated in terms of the maximum decrease in the mean blood pressure (Δ mmHg) at a dose of 30 μg/kg.

## CCC(C)(C)NC(=Nc1ccccc1)NC#N [Compd. A, N-cyano-N'-t-pentyl-N"-phenylguanidine, reference compound]
[1]
  EC50: 1800 nM

## CC(C)(C)NC(=Nc1c(Cl)cccc1Cl)NC#N [Compd. B, N-t-butyl-N'-cyano-N"-(2,6-dichlorophenyl)guanidine, reference compound]
[1]
  EC50: > 100000 nM

## CC(NC(=C[N+](=O)[O-])Nc1ccccc1)C(C)(C)C (centres unmarked) [Compd. C, 2-nitro-1-anilino-1-(1,2,2-trimethylpropyl)aminoethene, reference compound]
[1]
  EC50: 2700 nM

## CC(C)(C)NC(=Nc1cc(Cl)cc(Cl)c1)NC#N [Ex. B-1, N-t-butyl-N'-cyano-N"-(3,5-dichlorophenyl)-guanidine]
[1]
  EC50: 87 nM
In vivo
  LD50 at 168 h: > 2000 mg/kg

## CCC(C)(C)N=C(NC#N)Nc1cc(Cl)cc(Cl)c1 [Ex. B-2, N-cyano-N'-(3,5-dichlorophenyl)-N"-t-pentylguanidine]
[1]
  EC50: 26 nM
K^+ channel
  ED15 (dose producing 15% increase of the ^86 Rb^+ efflux rate coefficient): 270 nM
In vivo
  LD50 at 168 h: > 2000 mg/kg
[2]
  maximum decrease in the mean blood pressure, Δ mm Hg ± S.E.: -19.1 ± 4.1 mm Hg

## CCCC(C)(C)N=C(NC#N)Nc1cc(Cl)cc(Cl)c1 [Ex. B-3, N-cyano-N'-(3,5-dichlorophenyl)-N"-(1,1-dimethylbutyl)guanidine]
[1]
  EC50: 35 nM
[2]
  maximum decrease in the mean blood pressure, Δ mm Hg ± S.E.: -22.9 ± 3.2 mm Hg

## CC(C)C(C)(C)N=C(NC#N)Nc1cc(Cl)cc(Cl)c1 [Ex. B-4, N-cyano-N'-(3,5-dichlorophenyl)-N"-(1,1,2-trimethylpropyl)guanidine]
[1]
  EC50: 58 nM

## CCC(C)(CC)N=C(NC#N)Nc1cc(Cl)cc(Cl)c1 [Ex. B-5, N-cyano-N'-(3,5-dichlorophenyl)-N"-(1-ethyl-1-methylpropyl)guanidine]
[1]
  EC50: 81 nM
In vivo
  LD50 at 168 h: > 2000 mg/kg
[2]
  maximum decrease in the mean blood pressure, Δ mm Hg ± S.E.: -26.1 ± 1.8 mm Hg

## CC(N=C(NC#N)Nc1cc(Cl)cc(Cl)c1)C(C)(C)C (centres unmarked) [Ex. B-6, N-cyano-N'-(3,5-dichlorophenyl)-N"-(1,2,2-trimethylpropyl)guanidine]
[1]
  EC50: 180 nM

## CCC(CC)(CC)N=C(NC#N)Nc1cc(Cl)cc(Cl)c1 [Ex. B-7, N-cyano-N'-(3,5-dichlorophenyl)-N"-(1,1-diethylpropyl)guanidine]
[1]
  EC50: 180 nM

## CC(C)(C)NC(=Nc1cc(F)cc(F)c1)NC#N [Ex. B-8, N-t-butyl-N'-cyano-N"-(3,5-difluorophenyl)guanidine]
[1]
  EC50: 180 nM

## CC(C)(C)NC(=Nc1cc(Br)cc(Br)c1)NC#N [Ex. B-9, N-t-butyl-N'-cyano-N"-(3,5-dibromophenyl)guanidine]
[1]
  EC50: 21 nM

## CCC(C)(C)N=C(NC#N)Nc1cc(Br)cc(Br)c1 [Ex. B-10, N-cyano-N'-(3,5-dibromophenyl)-N"-t-pentylguanidine]
[1]
  EC50: 19 nM

## CC(C)(C)NC(=NC#N)Nc1cc(F)cc(Cl)c1 [Ex. B-11, N-t-butyl-N'-(3-chloro-5-fluorophenyl)-N"-cyanoguanidine]
[1]
  EC50: 66 nM
[2]
  maximum decrease in the mean blood pressure, Δ mm Hg ± S.E.: -19.2 ± 4.4 mm Hg

## CCC(C)(C)N=C(NC#N)Nc1cc(F)cc(Cl)c1 [Ex. B-12, N-(3-chloro-5-fluorophenyl)-N'-cyano-N"-t-pentylguanidine]
[1]
  EC50: 54 nM

## CCC(C)(C)N=C(NC#N)Nc1cc(F)cc(Br)c1 [Ex. B-13, N-(3-bromo-5-fluorophenyl)-N'-cyano-N"-t-pentylguanidine]
[1]
  EC50: 25 nM
In vivo
  LD50 at 168 h: > 2000 mg/kg
[2]
  maximum decrease in the mean blood pressure, Δ mm Hg ± S.E.: -33.4 ± 0.9 mm Hg

## CC(N=C(NC#N)Nc1ccncc1)C(C)(C)C.O (centres unmarked) [Pinacidil, N-cyano-N'-(4-pyridyl)-N"-(1,2,2-trimethylpropyl)guanidine monohydrate, reference compound]
[1]
  EC50: 2000 nM
K^+ channel
  ED15 (dose producing 15% increase of the ^86 Rb^+ efflux rate coefficient): 24000 nM
[2]
  maximum decrease in the mean blood pressure, Δ mm Hg ± S.E.: -11.3 ± 1.1 mm Hg
